pIC50: −log10 of the molar value.
Experiments:
SARS-CoV-2 3CLpro = SARS-CoV-2 3CLpro (Severe acute respiratory syndrome coronavirus 2, UniProt P0DTD1); test: biochemical; format: biochemical; settings: for inhibition activity against SARS-CoV-2 3CLpro in vitro (in words): FRET assay, 30 tested compounds
SARS-CoV-2 = test: microbe, parasite or virus in culture; format: cell-based; settings: Severe acute respiratory syndrome coronavirus 2, Vero C1008, read-out: IC50 of inhibition of cell infection
MERS-CoV 3CLpro = MERS-CoV 3CLpro (Middle East respiratory syndrome-related coronavirus, UniProt K9N7C7); test: biochemical
SARS-CoV-2 protease = SARS-CoV-2 protease (Severe acute respiratory syndrome coronavirus 2, UniProt P0DTD1); settings: Fu et al., Nature Comm. 2020; cited from earlier work
SARS-CoV-2 virus = settings: Vero E6 cells; Choy K. et al, Antivir. Res. 2020; read-out: IC50 antiviral effect; cited from earlier work

MERS-CoV 3CLpro, sequence (K9N7C7 3248-3553 limits assumed): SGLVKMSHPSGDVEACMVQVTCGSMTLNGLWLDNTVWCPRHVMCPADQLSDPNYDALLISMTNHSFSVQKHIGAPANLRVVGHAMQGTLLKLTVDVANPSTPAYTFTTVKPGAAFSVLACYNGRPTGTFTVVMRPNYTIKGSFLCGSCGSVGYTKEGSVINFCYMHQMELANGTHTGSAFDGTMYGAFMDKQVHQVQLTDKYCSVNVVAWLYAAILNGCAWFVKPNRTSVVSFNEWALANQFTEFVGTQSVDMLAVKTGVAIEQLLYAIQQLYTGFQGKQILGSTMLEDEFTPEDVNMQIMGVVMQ

SMILES | inhibition activity against SARS-CoV-2 3CLpro in vitro (in words) (SARS-CoV-2 3CLpro) | pIC50 (SARS-CoV-2) | pIC50 (SARS-CoV-2 3CLpro) | pIC50 (MERS-CoV 3CLpro) | other results
CCOC(=O)/C=C/[C@H](C[C@@H]1CCNC1=O)NC(=O)[C@@H](CC(=O)[C@@H](NC(=O)c1cc(C)on1)C(C)C)Cc1ccc(F)cc1 | not active in vitro |  |  |  | 
CCN(CC)CCCC(C)Nc1ccnc2cc(Cl)ccc12 (racemic) [chloroquine, (RS)-N′-(7-chloroquinolin-4-yl)-N,N-diethyl-pentane-1,4-diamine] |  | ~4.92 |  |  | cytotoxicity / cell viability (in words) (VeroE6 cells): significant cytotoxicity
O=C(/C=C/c1ccc(O)c(O)c1)OC1CC(OC(=O)/C=C/c2ccc(O)c(O)c2)(C(=O)O)CC(O)C1O (stereo not drawn) [CYNARIN, 1,3-bis[[(E)-3-(3,4-dihydroxyphenyl)prop-2-enoyl]oxy]-4,5-dihydroxycyclohexane-1-carboxylic acid] | active in vitro |  | 5.74 | 4.78 | 
CN(C)[C@@H]1C(O)=C(C(N)=O)C(=O)[C@@]2(O)C(O)=C3C(=O)c4c(O)c(NC(=O)CN5CCCC5)cc(F)c4C[C@H]3C[C@@H]12 [ERAVACYCLINE diHcl, (4S,4aS,5aR,12aS)-4-(Dimethylamido)-7-fluoro-3,10,12,12a-tetrahydroxy-1,11-dioxo-9-[(1-pyrrolidinylacetyl)amino]-1,4,4a,5,5a,6,11,12a-octahydro-2-tetracenecarboxamide] | active in vitro | 4.51 | 5.78 | 4.79 | cytotoxicity / cell viability (in words) (VeroE6 cells): without affecting cell viability
COc1cccc(OCCCN)c1-c1cc(Nc2cnc(C#N)cn2)n[nH]1 [PREXASERTIB diHCl, 5-((5-(2-(3-Aminopropoxy)-6-methoxyphenyl)-1H-pyrazol-3-yl)amino)-2-pyrazinecarbonitrile] | active in vitro |  | 5.70 | 4.91 | 
CC(C)C[C@H](NC(=O)[C@H](CCc1ccccc1)NC(=O)CN1CCOCC1)C(=O)N[C@@H](Cc1ccccc1)C(=O)N[C@@H](CC(C)C)C(=O)[C@@]1(C)CO1 [carfilzomib] |  |  |  |  | inhibition of SARS-CoV-2 protease (in words) (SARS-CoV-2 protease): failed to inhibit
CC[C@H]1CN2CCc3cc(OC)c(OC)cc3[C@@H]2C[C@@H]1C[C@H]1NCCc2cc(OC)c(OC)cc21 [emetine] |  |  |  |  | pIC50 (SARS-CoV-2 virus): 6.34
COC(=O)C[C@](O)(CCCC(C)(C)O)C(=O)O[C@@H]1C(OC)=C[C@]23CCCN2CCc2cc4c(cc2[C@H]13)OCO4 [homorringtonine, 1-((1S,3aR,14bS)-2-Methoxy-1,5,6,8,9,14b-hexahydro-4H-cyclopenta(a)(1,3)dioxolo(4,5-h)pyrrolo(2,1-b)(3)benzazepin-1-yl) 4-methyl (2R)-2-hydroxy-2-(4-hydroxy-4-methylpentyl)butanedioate] |  |  |  |  | pIC50 (SARS-CoV-2 virus): 5.59
CCC(CC)COC(=O)[C@H](C)N[P@](=O)(OC[C@H]1O[C@@](C#N)(c2ccc3c(N)ncnn23)[C@H](O)[C@@H]1O)Oc1ccccc1 [remdesivir, (2S)-2-{(2R,3S,4R,5R)-[5-(4-Aminopyrrolo[2,1-f][1,2,4]triazin-7-yl)-5-cyano-3,4-dihydroxy-tetrahydro-furan-2-ylmethoxy]phenoxy-(S)-phosphorylamino}propionic acid 2-ethyl-butyl ester] |  | ~4.92 |  |  | 

— patent publication US20230218644A1, “COMPOUNDS FOR USE IN THE TREATMENT OF VIRAL INFECTIONS BY RESPIRATORY SYNDROME-RELATED CORONAVIRUS” (SOM INNOVATION BIOTECH, S.A., priority 2020, published 2023)
